Test results from patent publication US10287301B2 (Achillion Pharmaceuticals, Inc., priority 2015, dated 2019).

Each compound was assayed against Human Factor D (Homo sapiens (Human), UniProt P00746) (assay: Human Factor D Assay). Conditions: Table 3; Human Factor D 80 nM, substrate Z-L-Lys-SBzl; read-out: IC50 (Stars).
Chain of Human Factor D (P00746 26-253): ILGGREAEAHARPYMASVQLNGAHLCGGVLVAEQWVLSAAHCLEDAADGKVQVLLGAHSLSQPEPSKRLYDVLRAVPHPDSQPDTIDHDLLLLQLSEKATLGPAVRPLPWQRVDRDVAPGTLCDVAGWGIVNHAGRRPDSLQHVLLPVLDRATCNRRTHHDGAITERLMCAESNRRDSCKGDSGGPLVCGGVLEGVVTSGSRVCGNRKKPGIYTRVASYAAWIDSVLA
Format: biochemical
Method in brief: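 IC50 values derive from nonlinear regression of Factor D reaction rates against compound concentration. The enzyme, purified from human serum, is used at 80 nM final with a 5 min room-temperature compound preincubation in 50 mM Tris, 1M NaCl, pH 7.5, before 100 μM Z-L-Lys-SBzl plus 100 μM DTNB are added.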
CC(=O)c1nn(CC(=O)N2CC3CC2(C(=O)Nc2cccc(Br)n2)C3)c2ccc(-c3cnc(C)nc3)cc12 [Compound 462, 2-(2-(3-acetyl-5-(2-Methylpyrimidin-5-yl)-1H-indazol-1-yl)acetyl)-N-(6-bromopyridin-2-yl)-2-azabicyclo[2.1.1]hexane-1-carboxamide] was tested, and the IC50 was < 1000 nM.
In the case of CC(=O)c1nn(CC(=O)N2C[C@H](F)C[C@H]2C(=O)NC2CCCC(C)(C)C2)c2ccc(-c3cnc(C)nc3)cc12 (stereo partly drawn) [Compound 464, (2S,4R)-1-(2-(3-acetyl-5-(2-methylpyrimidin-5-yl)-1H-indazol-1-yl)acetyl)-N-(3,3-dimethylcyclohexyl)-4-fluoropyrrolidine-2-carboxamide], the IC50 is reported as < 1000 nM.
CC(=O)c1nn(CC(=O)N2C[C@H](F)C[C@H]2C(=O)Nc2cccc(Br)n2)c2ccc(-c3cnc(C)cn3)cc12 [Compound 465, (2S,4R)-1-(2-(3-Acetyl-5-(5-methylpyrazin-2-yl)-1H-indazol-1-yl)acetyl)-N-(6-bromopyridin-2-yl)-4-fluoropyrrolidine-2-carboxamide] was tested, and the IC50 was < 1000 nM.
With CC(=O)c1nn(CC(=O)N2C[C@H](F)C[C@H]2C(=O)Nc2nc(Br)ccc2C)c2ccc(-c3cnc(C)cn3)cc12 [Compound 467, (2S,4R)-1-(2-(3-Acetyl-5-(5-methylpyrazin-2-yl)-1H-indazol-1-yl)acetyl)-N-(6-bromo-3-methylpyridin-2-yl)-4-fluoropyrrolidine-2-carboxamide] the IC50 was < 1000 nM.
With CC(=O)c1nn(CC(=O)N2C[C@H](F)C[C@H]2C(=O)Nc2nc(Br)ccc2C)c2ccc(-c3ccnc(C)n3)cc12 [Compound 468, (2S,4R)-1-(2-(3-Acetyl-5-(2-methylpyrimidin-4-yl)-1H-indazol-1-yl)acetyl)-N-(6-bromo-3-methylpyridin-2-yl)-4-fluoropyrrolidine-2-carboxamide] the IC50 was < 1000 nM.
For CC(=O)c1nn(CC(=O)N2C[C@H](F)C[C@H]2c2nc(-c3cccc(Br)n3)c[nH]2)c2ccc(-c3cnc(C)nc3)cc12 [Compound 469, 2-(3-acetyl-5-(2-Methylpyrimidin-5-yl)-1H-indazol-1-yl)-1-((2S,4R)-2-(4-(6-bromopyridin-2-yl)-1H-imidazol-2-yl)-4-fluoropyrrolidin-1-yl)ethan-1-one], the IC50 was < 1000 nM.
In the case of Cc1cccc(NC(=O)[C@@H]2[C@H]3CC[C@H](C3)N2C(=O)Cn2cc(C(N)=O)c3cc(-c4cnc(C)nc4)ccc32)n1 [Compound 473, 1-(2-((1R,3S,4S)-3-(6-Methylpyridin-2-ylcarbamoyl)-2-azabicyclo[2.2.1]heptan-2-yl)-2-oxoethyl)-5-(2-methylpyrimidin-5-yl)-1H-indole-3-carboxamide], the IC50 is reported as > 10000 nM.
CC(=O)c1nn(CC(=O)N2C[C@H](F)C[C@H]2C(=O)NCC(F)=C(C)C)c2ccc(-c3cnc(C)nc3)cc12 [Compound 474, (2S,4R)-1-(2-(3-acetyl-5-(2-methylpyrimidin-5-yl)-1H-indazol-1-yl)acetyl)-4-fluoro-N-(2-fluoro-3-methylbut-2-en-1-yl)pyrrolidine-2-carboxamide] was tested, and the IC50 was < 1000 nM.
With CC(=O)c1nn(CC(=O)N2C3CC[C@@H](C3)[C@H]2C(=O)Nc2cccc(Br)n2)c2ccc(-c3cnc(C)nc3)cc12 [Compound 475, (3S,4S)-2-(2-(3-Acetyl-5-(2-methylpyrimidin-5-yl)-1H-indazol-1-yl)acetyl)-N-(6-bromopyridin-2-yl)-2-azabicyclo[2.2.1]heptane-3-carboxamide] the IC50 was < 1000 nM.
With CC(=O)c1nn(CC(=O)N2C[C@H](F)C[C@H]2C(=O)Nc2ccn(-c3ccc(F)cn3)n2)c2ccc(-c3cnc(C)nc3)cc12 [Compound 479, (2S,4R)-1-(2-(3-acetyl-5-(2-Methylpyrimidin-5-yl)-1H-indazol-1-yl)acetyl)-4-fluoro-N-(1-(5-fluoropyridin-2-yl)-1H-pyrazol-3-yl)pyrrolidine-2-carboxamide] the IC50 was < 1000 nM.
